These results are taken from a melting point compilation (Tetko et al.).

Structures are written as SMILES.

In the case of `O=[N+]([O-])c1c(Cl)cc(Cl)cc1C(Cl)Cl`, the melting point was determined as 45 °C.
The compound `Cc1nc(CCl)c(C)o1` registered a melting point of 34 to 37 °C.
In the case of `Cc1ccc2ocnc2c1`, the melting point worked out at 43 °C.
In turn, `CC1(C)OCC(C2OC3OC(C)(C)OC3C2O)O1` (stereo not given) came in with a melting point of 109 °C.
On to `CC(C)(C)c1ccc(C2CCC3(CC2)Cc2ccc(C(=O)n4cc(CCCC(=O)O)c5ccccc54)cc2C3)cc1` (stereo not given), for which the melting point is 120 to 150 °C.
On to `O=C(O)[C@H]1[C@H](C(=O)O)[C@H]2C=C[C@@H]1C2`, for which the melting point came out at 185 °C.
The figure for `CSCN1C(=O)NC(c2ccccc2)(c2ccccc2)C1=O` is 124 to 131 °C; for `O=C(O)c1ccnn1-c1ccccc1` it is 182 to 183 °C.
`Cc1ccccc1NC(N)=O` showed a melting point of 190 to 195 °C.
Turning to `CSc1ncc(Br)c(C(=O)O)n1`, the melting point fell in the range of 156 to 157 °C.
Take `O=S(=O)(Cl)Cc1ccccc1Br`: the melting point was in the range of 78 to 80 °C.
The figure for `CCCSc1ccccc1` is -45 °C; for `CN1CCN(c2ccccc2N)CC1` it is 101 to 102 °C; for `Cc1oc(-c2ccc(Cl)cc2)cc1C(=O)Cl` it is 122 to 124 °C.
The value for `O=c1c(Br)c(Br)cnn1-c1ccccc1` was 143 to 144 °C.
The value for `Cc1ccc(C)c(N2CCNCC2)c1` was 45 °C; that for `CCCCCCCCCCCCCCCCCC(=O)Oc1ccccc1` was 52 °C; that for `Cc1ccncc1/C=C/C(=O)O` was 137 °C.
As for `COn1c(C)c(C(C)=O)c2c3nonc3ccc21`, the melting point is 201 to 203 °C.
For `CN(C)c1ccc(C=CC(=O)c2ccccc2)cc1`, the melting point stood at 114 °C.
The compound `O=c1oc2c3c4c(cc2c2c1CCC2)CCCN4CCC3` registered a melting point of 149 °C.
For `O=C(O)c1ccc2[nH]cnc2c1`, the melting point came to 300 °C.
In the case of `Cc1ccc(O)c2ccccc12`, the melting point came out at 85.8 °C.
In the case of `Cc1ccccc1[N+](=O)[O-]`, the melting point is -4 °C.
On to `CCOC(=O)C1=C(C)OC(N)=C(C#N)C1c1ccc(N2CCOCC2)cc1` (stereo not given), for which the melting point lay within 152 to 159 °C.
In turn, `Cc1cc(C)c(N)c(C)c1N` yielded a melting point of 90 °C.
Compound `CN1CCN(c2cccc([N+](=O)[O-])c2)CC1` had a melting point of 60 to 62 °C.
Consider `N#Cc1ccc(C(F)(F)F)nc1`, for which the melting point is 39 °C.
Turning to `O=S(=O)(Cl)c1ccc(F)cc1C(F)(F)F`, the melting point is 50 °C.
`OCc1csc2ccc(Br)cc12` yielded a melting point of 79 to 81 °C.
As for `Cc1cc2c(c(C)c1C)CC2=O`, the melting point was 86 °C.
The compound `O=C(O)c1ccc(OCC(F)(F)F)nc1` showed a melting point of 174 °C.
The value for `C=CCc1ccc2c(c1)OCO2` was 11.2 °C.
Regarding `COC(=O)c1sc(-c2ccccc2)cc1N`, the melting point fell in the range of 147 to 149 °C.
Compound `COc1ccc([N+](=O)[O-])c(C(=O)O)c1` gave a melting point of 133 °C.
Consider `C[Si](C)(Oc1ccccc1)Oc1ccccc1`, for which the melting point was -23 °C.
`CN(C)c1ccc([N+]([O-])=CC(=O)c2ccc(C(=O)C=[N+]([O-])c3ccc(N(C)C)cc3)cc2)cc1` showed a melting point of 132 to 134 °C.
The compound `COC(=O)c1c(C)cc(=O)oc1C` came in with a melting point of 66 to 70 °C.
`O=C1CCCN1c1ccc(S(=O)(=O)Cl)cc1` displayed a melting point of 107 to 108 °C.
For `O=C(O)c1cccc(-n2cccn2)c1`, the melting point fell in the range of 154 to 156 °C.
The figure for `O=C(O)c1ccccc1SSc1ccccc1C(=O)O` is 288 °C; for `CCC(C)(C)C(C)(C)O` it is -1 °C; for `CCCCCCCCCCCCCCCC(=O)OCCOC(=O)CCCCCCCCCCCCCCC` it is 72 °C.
The value for `C/C(=N\Cc1cccnc1)c1c(O)c2ccccc2n(-c2ccccc2)c1=O` was 221 to 222 °C; that for `COC(=O)c1cc(Br)ccc1N` was 72 °C; that for `OC(CCN1CCCCC1)(c1ccccc1)C1CC2C=CC1C2` (stereo not given) was 114 °C.
Turning to `CCCCCCCCCCC(=O)OCC`, the melting point was -15 °C.
The figure for `Nc1ccc(S(=O)(=O)Nc2cnc3ccccc3n2)cc1` is 248 °C; for `CC(C)[Si](C(C)C)(C(C)C)C1SCCCS1` it is 48 °C.
Compound `Nc1nc2ccccc2n1Cc1ccccc1` had a melting point of 200 to 204 °C.
In turn, `C/C(=C\C=C\c1ccccc1)C(=O)O` registered a melting point of 159 °C.
The compound `Nc1ccc2nsnc2c1` registered a melting point of 112 to 114 °C.
In turn, `CC(=O)Nc1nn(C(C)=O)c2ncccc12` came in with a melting point of 217 to 219 °C.
The value for `CC(CS)C(=O)N1CCCC1C(=O)O` (stereo not given) was 106 °C; that for `CC(C)(C)c1cnc(C(=O)Nc2cccc(Br)c2)cn1` was 113 to 114 °C; that for `CSc1cc(-c2ccc(Oc3ccccc3)cc2)n[nH]1` was 97 to 98.5 °C.
As for `CCOC(=O)c1c(NC(=O)CN(CC)CC)sc2c1CCCC2`, the melting point fell in the range of 74 to 75 °C.
The compound `C1CCC(P(C2CCCCC2)C2CCCCC2)CC1` yielded a melting point of 77 to 83 °C.
The compound `O=[N+]([O-])c1cccc2cccc(/C=N\c3ccccc3)c12` yielded a melting point of 114 to 115 °C.
`Nc1ccccc1CN1CCOCC1`: the melting point is 70 to 71 °C.
On to `O=C(O)c1ccccc1Nc1cccc(F)c1`, for which the melting point is 158 to 163 °C.
The figure for `NS(=O)(=O)c1cc2c(s1)C(O)CCS2=O` (stereo not given) is 190 °C.
The figure for `CCCCCCCCOC(C)=O` is -38.5 °C.
The value for `O=C1Cc2cc(C(=O)CBr)ccc2N1` was 225 °C.
Compound `NC(=S)CS(=O)(=O)c1cccs1` displayed a melting point of 160 to 164 °C.
Consider `O=C(O)c1cc2cnccc2nc1C(F)(F)F`, for which the melting point is 233 to 235 °C.
Turning to `Nc1cccc(S(N)(=O)=O)c1`, the melting point amounted to 141 °C.
The compound `O=[N+]([O-])c1ccc2ncccc2c1` had a melting point of 154 °C.
For the compound `NC(=NO)c1ccccc1`, the melting point lay in the range of 75 to 77 °C.
For `Nc1ccc(CC(N)C(=O)O)cc1` (racemic), the melting point was in the range of 255 to 258 °C.
For the compound `CC(C)(C)C(=O)C(C)(C)C`, the melting point was -25.2 °C.
With `COc1ccccc1-c1ccc(C=C(C(C)=O)C(C)=O)o1`, the melting point was 145 to 146 °C.
`O=C(O)c1cccc(Cl)n1` gave a melting point of 194 °C.
The compound `NS(=O)(=O)c1ccc(SCCO)c([N+](=O)[O-])c1` had a melting point of 151 °C.
Turning to `N#CCC(=O)N1CCCCC1`, the melting point is 88 °C.
As for `C=CCOOC(C)(C)c1ccccc1`, the melting point was found to be 60 °C.
Regarding `OCC(F)(F)C(F)(F)C(F)(F)C(F)(F)C(F)(F)C(F)(F)C(F)(F)C(F)F`, the melting point lay within 58 to 60 °C.
The value for `O=C(Nc1ccccn1)C(C(F)(F)F)C(F)(F)F` was 108 to 110 °C; that for `O=C1c2ccc(C(Br)Br)c([N+](=O)[O-])c2C(=O)c2c(Cl)c(Cl)c(Cl)c(Cl)c21` was 246 to 248 °C; that for `Cn1c(=S)sc2ccccc21` was 90 °C.
`CCCCCCCCCCCCCC1CCCCC1` had a melting point of 18.5 °C.
Regarding `Cc1n[nH]c(C)c1-c1ccccc1`, the melting point lay in the range of 133 to 134 °C.
The figure for `CCCN(CCC)c1c([N+](=O)[O-])cc(S(N)(=O)=O)cc1[N+](=O)[O-]` is 141 °C; for `NCc1ccc(N2CCOCC2)cc1` it is 50 °C.
The compound `N#Cc1ccccc1S(=O)(=O)Cl` gave a melting point of 69 to 70 °C.
The figure for `CCCCCCCCCCCCCCCCCCCCCCCCCCCCCC[Si](C)(C)Cl` is 60 to 80 °C.
Consider `O=C1C=CC(=O)N1c1ccc(N2C(=O)C=CC2=O)cc1`, for which the melting point was 300 °C.
`CC(/N=N/c1cc(Cl)cc(Cl)c1O)=C(\Cl)C(=O)OCCOCCOCCCl` returned a melting point of 71.5 °C.
The value for `CCCCCCCCC=CCCCCCCCC(=O)OC(=O)CCCCCCCC=CCCCCCCCC` was 22 to 23 °C; that for `CCN1C(=O)CC(=O)N(CC)C1=S` was 106 to 109 °C.
Compound `Nc1ccc2c3c(cccc13)C(=O)NC2=O` returned a melting point of 360 °C.
In turn, `Fc1ccc(C(Br)(c2ccc(F)cc2)c2ccc(F)cc2)cc1` showed a melting point of 109 °C.
For the compound `C[C@@H](OC(C)(C)C)[C@H](NC(=O)OCC1c2ccccc2-c2ccccc21)C(=O)O`, the melting point fell in the range of 131 to 134 °C.
`C=CCc1ccc(OC(C)=O)c(OC)c1`: the melting point was 30.5 °C.
The value for `CN(N)c1c(N(C)N)c(=O)c1=O` was 201 to 202 °C; that for `Nc1cc(Br)ccn1` was 146 °C.
Compound `COc1ccc2c(c1)OC1c3ccc(O)cc3OCC21` (stereo not given) showed a melting point of 128 °C.
`FC(F)(F)c1cc(CCl)cc(C(F)(F)F)c1` returned a melting point of 31 °C.
The value for `N#Cc1ccc(C(Cl)C(Cl)c2ccc(C(Cl)C(Cl)c3ccc(C#N)cc3[N+](=O)[O-])cc2)c([N+](=O)[O-])c1` (stereo not given) was 278 °C.
As for `c1csc(-c2cc[nH]n2)c1`, the melting point lay within 97 to 99 °C.
Turning to `O=C(O)c1snnc1-c1ccccc1`, the melting point lay in the range of 144 to 145 °C.
Turning to `Nn1c(S(=O)(=O)O)nc2ccccc21`, the melting point fell in the range of 252 to 253 °C.
For `Nc1cccc(F)c1`, the melting point is -5 °C.
In the case of `Cc1onc(-c2c(F)cccc2Cl)c1C#N`, the melting point fell in the range of 78 to 81 °C.
The figure for `CC(=O)/C(=N\Nc1ccc([N+](=O)[O-])cc1)C(=O)C(F)(F)F` is 140 °C; for `Cc1cc(N=Nc2ccc(N=Nc3ccccc3)cc2)ccc1N=Nc1ccc(N=Nc2ccccc2)cc1` it is 209 °C; for `O=C1C(c2ccccn2)=[N+]([O-])c2ccccc21` it is 182 °C.
Compound `CCOC(=O)c1cnc2nc(SC)nn2c1N` came in with a melting point of 211 to 213 °C.
`NCCCNCCO` came in with a melting point of 15 to 19 °C.
Turning to `N#CC(C(=O)N1CCOCC1)=C(SCc1ccccc1)SCc1ccccc1`, the melting point came out at 123 °C.
